Patent publication US20240190851A1, “FURAN FUSED RING-SUBSTITUTED GLUTARIMIDE COMPOUND” (MEDSHINE DISCOVERY INC., priority 2021, published 2024)
Structures can show the parent of a compound that is named as a salt.

Biological target: T1, androgen receptor AR (Homo sapiens, UniProt P10275, T878A)
T1 construct: degradation effect of compounds on androgen receptor AR in LNCaP cells; endogenous in cells; host or cells: LNCaP
T1 sequence (P10275 1-920 T878A): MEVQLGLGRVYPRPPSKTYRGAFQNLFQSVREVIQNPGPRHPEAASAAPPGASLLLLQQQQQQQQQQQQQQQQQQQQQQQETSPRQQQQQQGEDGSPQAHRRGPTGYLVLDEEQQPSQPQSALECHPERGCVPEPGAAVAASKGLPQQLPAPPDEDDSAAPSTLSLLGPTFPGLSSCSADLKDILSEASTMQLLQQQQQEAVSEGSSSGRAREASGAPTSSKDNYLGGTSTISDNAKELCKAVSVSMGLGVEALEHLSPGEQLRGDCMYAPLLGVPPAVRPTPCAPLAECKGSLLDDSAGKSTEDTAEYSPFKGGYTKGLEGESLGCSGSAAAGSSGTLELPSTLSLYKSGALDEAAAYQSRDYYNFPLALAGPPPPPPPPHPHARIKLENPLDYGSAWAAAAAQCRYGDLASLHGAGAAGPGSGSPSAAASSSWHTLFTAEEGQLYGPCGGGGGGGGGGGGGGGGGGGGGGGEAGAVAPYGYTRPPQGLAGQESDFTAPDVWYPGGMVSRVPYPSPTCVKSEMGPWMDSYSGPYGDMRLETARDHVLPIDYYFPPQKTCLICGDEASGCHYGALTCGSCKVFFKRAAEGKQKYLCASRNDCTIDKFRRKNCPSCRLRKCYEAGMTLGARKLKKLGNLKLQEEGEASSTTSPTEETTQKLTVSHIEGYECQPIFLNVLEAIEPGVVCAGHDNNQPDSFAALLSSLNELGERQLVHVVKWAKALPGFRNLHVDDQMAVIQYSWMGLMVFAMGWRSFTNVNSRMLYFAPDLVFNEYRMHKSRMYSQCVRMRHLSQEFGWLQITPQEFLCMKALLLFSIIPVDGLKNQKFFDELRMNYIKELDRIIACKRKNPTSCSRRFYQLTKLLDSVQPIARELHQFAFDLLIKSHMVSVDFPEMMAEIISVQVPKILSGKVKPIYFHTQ
Assay: AR degradation in LNCaP cells by ICW method
Type: cell-based
Conditions: 24 hours
Description: Experimental purpose: To test the degradation effect of compounds on androgen receptor AR in LNCaP cells by ICW method.
Day 1 • 1. The cell culture medium, 0.025% trypsin, and phosphate buffered saline were preheated in a 37° C. water bath. • 2. Cells digested by trypsin were centrifuged at 1000 rpm for 5 minutes. The supernatant was discarded, and then the cells were resuspended in fresh culture medium. • 3. The cells were inoculated in a COL-Coated CellCarrier-384 plate at a density of 4 k/[…]/well. • 4. The 384 cell plate inoculated with cells was placed in an ultra-clean bench for 10 minutes. • 5. The cell plate was cultured overnight in a CO2 cell incubator.
Day 2 • 1. The compound at a concentration of 10 mM was diluted to 3 mM (3 μL+7 μL of dimethyl sulfoxide) before serial dilution. • 2. The compound was serially diluted 3-fold (4 μL+8 μL) in an Echo plate using Bravo. • 3. ZPE and HPE control wells were setup, and the ZPE control wells were dimethyl sulfoxide. • 4. The Echo plate was centrifuged at 1000 rpm for 1 minute, and then the diluted compound was transferred from the Echo plate to an intermediate plate using Echo with 200 nL/well. • 5. To the intermediate plate was added the cell culture medium using Multidrop combi with […]. • 6. The intermediate plate was shaken on a horizontal shaker for 1 minute to mix the compound well with the culture medium. • 7. The compound was transferred from the intermediate dilution plate to the cell plate using Bravo with 4 μL/well. • 8. The cell plate was shaken on the horizontal shaker for 1 minute, and centrifuged at 800 rpm for 30 seconds. • 9. The cell plate was returned to the CO2 incubator, and cultured for another 24 hours.
Day 3 • 1. 4% paraformaldehyde was removed from the refrigerator and brought to room temperature. • 2. The cell plate was removed from the incubator. • 3. To the cell plate was directly added 4% paraformaldehyde with 40 μL/well. • 4. The plate was incubated at room temperature for 20 minutes. • 5. The culture medium was manually shaken off from the cell plate, inverted in a centrifuge, and centrifuged at 800 rpm for 7 seconds to fully remove the residual culture medium. • 6. To the cell plate was added 4% paraformaldehyde with 25 μL/well. • 7. The plate was incubated at room temperature for 30 minutes. • 8. The paraformaldehyde solution was manually shaken off from the cell plate, inverted in the centrifuge, and centrifuged at 800 rpm for 7 seconds. • 9. 0.1% Trition was added with 25 μL/well. • 10. The plate was incubated at room temperature for 10 minutes. • 11. The 0.1% Trition solution was manually shaken off from the cell plate, inverted in the centrifuge, and centrifuged at 800 rpm for 7 seconds. • 12. Intercept® (PBS) blocking buffer was added with 25 μL/well. • 13. The plate was incubated at room temperature for 1 hour. • 14. The Intercept® (PBS) blocking buffer solution was manually shaken off from the cell plate, inverted in the centrifuge, and centrifuged at 800 rpm for 7 seconds. • 15. Primary antibody solution was added with 20 μL/well. The cell plate was placed in the centrifuge, and centrifuged at 800 rpm for 7 seconds. • 16. The cell plate was sealed, and then incubated overnight at 4° C.
Day 4 • 1. The primary antibody solution was manually shaken off from the cell plate, inverted in the centrifuge, and centrifuged at 800 rpm for 7 seconds. • 2. The plate was washed three times with 110 μL of PBS. • 3. The cell plate was inverted in the centrifuge, and centrifuged at 800 rpm for 7 seconds. • 4. Secondary antibody and DAPI solution was added with 20 μL/well. The cell plate was placed in the centrifuge, and centrifuged at 800 rpm for 7 seconds. • 5. The plate was incubated at room temperature for 1 hour. • 6. The secondary antibody and DAPI solution was manually shaken off from the cell plate, inverted in the centrifuge, and centrifuged at 800 rpm for 7 seconds. • 7. […]

N#Cc1ccc(O[C@H]2CC[C@H](NC(=O)c3ccc(N4CCC(CN5CCN(c6cccc7c6ccc6occ(C8CCC(=O)NC8=O)c67)CC5)CC4)nn3)CC2)cc1Cl (stereo partly shown) [Hydrochloride of WX015]
DC50: 13.7 nM
Dmax: 102%

CC1(C)C(=O)N(c2ccc(C#N)c(C(F)(F)F)c2)C(=S)N1c1ccc(OCCN2CCN(CC(=O)Nc3ccc4c(C5CCC(=O)NC5=O)coc4c3)CC2)c(F)c1 (stereo not shown) [WX002]
DC50: 8.9 nM
Dmax: 72%
